B1: exogenous catalase: 1000 U/ml catalase from ox liver, added exogenously (protein, UniProt P00432 2-527, looked up)
Catalase: ADNRDPASDQMKHWKEQRAAQKPDVLTTGGGNPVGDKLNSLTVGPRGPLLVQDVVFTDEMAHFDRERIPERVVHAKGAGAFGYFEVTHDITRYSKAKVFEHIGKRTPIAVRFSTVAGESGSADTVRDPRGFAVKFYTEDGNWDLVGNNTPIFFIRDALLFPSFIHSQKRNPQTHLKDPDMVWDFWSLRPESLHQVSFLFSDRGIPDGHRHMNGYGSHTFKLVNANGEAVYCKFHYKTDQGIKNLSVEDAARLAHEDPDYGLRDLFNAIATGNYPSWTLYIQVMTFSEAEIFPFNPFDLTKVWPHGDYPLIPVGKLVLNRNPVNYFAEVEQLAFDPSNMPPGIEPSPDKMLQGRLFAYPDTHRHRLGPNYLQIPVNCPYRARVANYQRDGPMCMMDNQGGAPNYYPNSFSAPEHQPSALEHRTHFSGDVQRFNSANDDNVTQVRTFYLKVLNEEQRKRLCENIAGHLKDAQLFIQKKAVKNFSDVHPEYGSRIQALLDKYNEEKPKNAVHTYVQHGSHLSAREKANL

How the values were obtained:
[1] = test system: MKN-45 cells; experiment: Inhibitor analysis of antibody-induced apoptosis in MKN-45 cells (ROS signaling); assay type: cell-based, human; settings: for effect of inhibitor on apoptosis induced by monoclonal antibody against catalase: MKN-45, 2 hours, FIG. 8; for effect of inhibitor on anti-SOD-induced apoptosis: MKN-45, 6 hours, inhibitor concentrations of b79
Procedure: To 12 500 MKN-45 cells in […] RPMI 1640 medium, 10% FBS the given concentrations of the monoclonal antibodies against catalase as well as the mentioned inhibitors were added and the incubation was continued for 2 hours at 37° C., 5% CO2, before in duplicates the percentages of apoptotic cells were determined.
To 12 500 MKN-45 cells in […] RPMI 1640 medium, 10% FBS the given concentrations of the monoclonal antibodies against catalase and the given concentrations of the salen-manganese complex EUK-134 (chloro[[2,2′-[1,2-ethanediylbis[(nitrilo-κN)methylidyne]]bis[6-methoxyphenolato-κO]]]-manganese) (a catalase mimetic) were added and the incubation was continued for 2.5 hours at 37° C., 5% CO2. Subsequently, the percentage of apoptotic cells (duplicates) was determined according to the conventional apoptosis criteria membrane blebbing, nuclear condensation and/or nuclear fragmentation.
To 12 500 MKN-45 cells in […] RPMI 1640 medium, 10% FBS the given concentrations of monoclonal antibodies against SOD and the given inhibitors were added and the incubation was continued for 6 hours at 37° C., 5% CO2. Subsequently, the percentage of apoptotic cells (duplicates) was determined according to the conventional apoptosis criteria membrane blebbing, nuclear condensation, and/or nuclear fragmentation.
Inhibitors: […] FeTPPS (peroxynitrite decomposition catalyst); 75 U/ml MnSOD; 50 mM taurine (HOCl scavenger); 2.4 mM L-NAME (NOS inhibitor).

[2] = test system: human Ewing's sarcoma line SKN-MC; experiment: Induction of apoptosis in Ewing's sarcoma line SKN-MC and inhibitor analysis; assay type: cell-based; settings: 3 hours, inhibitor concentrations; for effect of inhibitor on anti-catalase-induced apoptosis: FIG. 13A; for effect of inhibitor on anti-SOD-induced apoptosis: FIG. 13B
Procedure: To 12 500 cells of the human neuroblastoma line SHEP and the human Ewing's sarcoma line SKN-MC in […] EMEM plus 5% FBS the given concentrations of anti-catalase and anti-SOD, respectively, were added. The percentages of apoptotic cells were determined after 5 hours (SHEP) and 5.5 hours (SKNMC), respectively.
To 10 000 cells of the human Ewing's sarcoma line SKN-MC in […] EMEM plus 5% FBS the given inhibitors and the concentrations of anti-catalase and anti-SOD, respectively, plotted in the abscissa were added. The percentages of apoptotic cells were determined after 3 hours.
Inhibitors: 50 mM taurine (HOCl scavenger); […] (peroxynitrite decomposition catalyst); 1000 U/ml catalase from ox liver; 40 mM MnTE2PyP(SOD mimetic); 90 U/ml MnSOD; 20 mM 3-Br-7-nitroindazole (nNOS specific inhibitor).

[3] = test system: MKN-45 cells; experiment: Synergistic effect of anti-catalase and anti-SOD in induction of apoptosis in MKN-45 cells; assay type: cell-based, human; settings: 2 mM histidine, MKN-45, 3 hours, FIG. 18
Procedure: 12 500 MKN-45 cells in […] RPMI 1640 medium, 10% FBS received the given concentrations of anti-catalase. Control batches remained free of additional batches, batches for determination of the interaction additionally received 0.5 ng/ml or 2 ng/ml anti-SOD. The percentages of apoptotic cells were determined after 5.5 hours in duplicates.
This is unexpected and of great interest, since on its basis a considerable saving of antibodies could be achieved with the same effect. So, for example the combination of 2 ng/ml anti-SOD with 2 ng/ml anti-catalase results in 80 percent of the effect that can be achieved with 125 ng/ml of anti-catalase antibodies alone. 12 500 MKN-45 cells in […] RPMI 1640 medium, 10% FBS received the given concentrations of anti-catalase (control), anti-catalase plus 2 mM histidine (singlet oxygen scavenger), anti-catalase plus 1 ng/ml anti-SOD, anti-catalase/1 ng/ml anti-SOD/2 mM histidine. The percentages of apoptotic cells are determined after 3 hours in duplicates.
12 500 MKN-45 cells in […] RPMI 1640 medium, 10% FBS received the given concentrations of the Fab fragment AbD15562 directed against catalase. […] The percentages of apoptotic cells were determined after 3 hours in duplicates.

Row | Molecule | effect of inhibitor on apoptosis induced by monoclonal antibody against catalase ([1]; inhibitor concentrations) | effect of inhibitor on anti-SOD-induced apoptosis ([1]; FIG. 10) | effect of inhibitor on anti-catalase-induced apoptosis [2] | effect of inhibitor on anti-SOD-induced apoptosis [2] | also measured
1 | COC(=O)[C@@H](N)CCCNC(=N)N[N+](=O)[O-].Cl [L-NAME, N-ω-nitro-L-arginine methylester hydrochloride] | inhibited in the lower concentration range of the antibody | inhibition |  |  | 
2 | CC[n+]1ccccc1-c1c2nc(c(-c3cccc[n+]3CC)c3ccc([n-]3)c(-c3cccc[n+]3CC)c3nc(c(-c4cccc[n+]4CC)c4ccc1[n-]4)C=C3)C=C2.[Cl-].[Cl-].[Cl-].[Cl-].[Cl-].[Mn+3] [MnTE2PyP, Mn(III) meso-tetrakis(N-ethyl-2-pyridyl)porphyrin pentachloride] |  |  | inhibition | inhibition | 
3 | NCCc1ccc(S(=O)(=O)F)cc1 [AEBSF, 4-(2-aminoethyl)-benzenesulfonyl fluoride] | inhibited |  |  |  | 
4 | N[C@@H](Cc1c[nH]cn1)C(=O)O [histidine] |  |  |  |  | blocking of the supra-optimum drop of the concentration-dependent curves [3]: can be blocked; blocking of the synergistic effect between anti-SOD and anti-catalase [3]: cannot be blocked
5 | NCCS(=O)(=O)O [taurine] |  | lacking inhabitability | lacking inhibitory effect | lacking inhibitory effect | effect on the NO/peroxynitrite pathway in anti-SOD-induced apoptosis ([1]; MKN-45, 50 mM taurine, FIG. 10): enhancing effect; effect of inhibitor on apoptosis induced by monoclonal antibody against catalase ([1]; higher antibody concentration (HOCl pathway)): inhibitory effect
6 | COc1cccc(C=NCCN=Cc2cccc(OC)c2[O-])c1[O-].[Cl-].[Mn+3] [EUK-134] |  |  |  |  | effect on anti-catalase-induced apoptosis ([1]; 0.25 μM EUK-134, middle concentration range of the antibody, FIG. 9): stronger inhibition; effect on anti-catalase-induced apoptosis ([1]; 0.25 mM EUK-134, lower concentration range of the antibodies, FIG. 9): significant increase in apoptosis; effect on concentration curve of anti-catalase-induced apoptosis ([1]; 0.06 and 0.125 mM EUK-134, MKN-45, 2.5 hours, FIG. 9): change the optimum curve into a plateau curve; effect on anti-catalase-induced apoptosis ([1]; two next higher concentrations of EUK-134, middle concentration range of the antibody, FIG. 9): complete inhibition of the HOCl pathway
7 | O=[N+]([O-])c1cccc2c(Br)n[nH]c12 [3-Br-7-nitro-indazole, 3-bromo-7-nitroindazole] |  |  | inhibition | inhibition | 
8 | Cl.O=S(=O)([O-])c1ccc(-c2c3nc(c(-c4ccc(S(=O)(=O)O)cc4)c4ccc([nH]4)c(-c4ccc(S(=O)(=O)O)cc4)c4nc(c(-c5ccc(S(=O)(=O)O)cc5)c5ccc2[nH]5)C=C4)C=C3)cc1.[Fe] [FeTPPS, 5-, 10-, 15-, 20-tetrakis(4-sulfonatophenyl)porphyrinato iron(III) chloride] | inhibited in the lower concentration range of the antibody | inhibition | inhibition | inhibition | 
9 | B1 |  |  | compensated | compensated | 
